Test results published in patent publication US9296741B2, “Bromodomain inhibitors” (priority 2012, dated 2016).

Experiments:
[1] = biological target: human BRD4 second bromodomain (BDII_E352-M457) (Homo sapiens (Human), UniProt O60885); test: TR-FRET bromodomain binding assay, BRD4 second bromodomain
[2] = Rat liver microsome stability assay; assay type: in vitro ADME; conditions: rat liver microsomes (male Sprague-Dawley), 0.5 μM test compound, 0.25 mg/mL microsomal protein, pH 7.4, 37° C.; read-out: Stability in rat liver microsomes (t1/2 in minutes)
[3] = biological target: human BRD4 first bromodomain (BDI_K57-E168) (Homo sapiens (Human), UniProt O60885); test: TR-FRET bromodomain binding assay, BRD4 first bromodomain
[4] = Mouse liver microsome stability assay; assay type: in vitro ADME; conditions: male, CD1, mouse, microsomes, pH 7.4
[5] = Human liver microsome stability assay; assay type: in vitro ADME; conditions: both sexes, human, microsomes, pH 7.4

| Ki [1] [nM] | half-life at 0.5 μM [2] [min] | Ki [3] [nM] | half-life at 0.5 μM [4] [min] | half-life at 0.5 μM [5] [min] | SMILES |
| --- | --- | --- | --- | --- | --- |
| 969 | 80 | 225 | 98 | 65 | CN1CCC[C@H]1COc1ccc(S(C)(=O)=O)cc1-c1cn(C)c(=O)c2[nH]ccc12 [Example 222, 6-methyl-4-[2-{[(2S)-1-methylpyrrolidin-2-yl]methoxy}-5-(methylsulfonyl)phenyl]-1,6-dihydro-7H-pyrrolo[2,3-c]pyridin-7-one] |
| 68.9 | > 120 | 69.3 | > 120 | > 120 | Cn1cc(-c2cc(S(C)(=O)=O)ccc2OCCN2CCNC2=O)c2cc[nH]c2c1=O [Example 218, 6-methyl-4-{5-(methylsulfonyl)-2-[2-(2-oxoimidazolidin-1-yl)ethoxy]phenyl}-1,6-dihydro-7H-pyrrolo[2,3-c]pyridin-7-one] |
| 22.5 | 24 | 44.4 | 2 | 14 | Cn1cc(-c2cc(C(=O)N3CCN(C(=O)N4CCCC4)CC3)ccc2Oc2ccc(F)cc2F)c2cc[nH]c2c1=O [Example 119, 4-[2-(2,4-difluorophenoxy)-5-{[4-(pyrrolidin-1-ylcarbonyl)piperazin-1-yl]carbonyl}phenyl]-6-methyl-1,6-dihydro-7H-pyrrolo[2,3-c]pyridin-7-one] |
| 505 | 32 | 1400 | 23 | 59 | CCS(=O)(=O)Nc1ccc(Oc2ccc(F)cc2F)c(-c2cn(C)c(=O)c3[nH]cc(CN4CCOCC4)c23)c1 [Example 350, N-{4-(2,4-difluorophenoxy)-3-[6-methyl-3-(morpholin-4-ylmethyl)-7-oxo-6,7-dihydro-1H-pyrrolo[2,3-c]pyridin-4-yl]phenyl}ethanesulfonamide] |
| 845 | 59 | 264 | > 120 | 52 | CN1CCCC1CCOc1ccc(S(C)(=O)=O)cc1-c1cn(C)c(=O)c2[nH]ccc12 (stereo not drawn) [Example 225, 6-methyl-4-{2-[2-(1-methylpyrrolidin-2-yl)ethoxy]-5-(methylsulfonyl)phenyl}-1,6-dihydro-7H-pyrrolo[2,3-c]pyridin-7-one] |
| 112 | 21 | 72.5 | 4 | 11 | Cn1cc(-c2cc(C(=O)NCc3cccnc3)ccc2Oc2ccc(F)cc2F)c2cc[nH]c2c1=O [Example 128, 4-(2,4-difluorophenoxy)-3-(6-methyl-7-oxo-6,7-dihydro-1H-pyrrolo[2,3-c]pyridin-4-yl)-N-(pyridin-3-ylmethyl)benzamide] |
| 274 | 23 | 215 | 12 | 45 | Cn1cc(-c2cc(C(=O)NCc3ccc(F)c(F)c3)ccc2Oc2ccc(F)cc2F)c2cc[nH]c2c1=O [Example 125, N-(3,4-difluorobenzyl)-4-(2,4-difluorophenoxy)-3-(6-methyl-7-oxo-6,7-dihydro-1H-pyrrolo[2,3-c]pyridin-4-yl)benzamide] |
| 9.6 | 5 | 51.3 | 3 | 9 | CC(C)c1ccc(Oc2ccc(S(C)(=O)=O)cc2-c2cn(C)c(=O)c3[nH]ccc23)cc1 [Example 192, 6-methyl-4-{5-(methylsulfonyl)-2-[4-(propan-2-yl)phenoxy]phenyl}-1,6-dihydro-7H-pyrrolo[2,3-c]pyridin-7-one] |
| 5.9 | 15 | 13.3 | 7 | 9 | Cn1cc(-c2cc(S(C)(=O)=O)ccc2Oc2ccc3ccncc3c2)c2cc[nH]c2c1=O [Example 172, 4-[2-(isoquinolin-7-yloxy)-5-(methylsulfonyl)phenyl]-6-methyl-1,6-dihydro-7H-pyrrolo[2,3-c]pyridin-7-one] |
